This is an account of results in patent publication US5384406A, “Water-soluble biologically active ammonium salts” (ISP Investments Inc., priority 1993, dated 1995).

Where two headings read alike, the source gives them in different places.

One data set in a line: solubility in water. Here is the method: Example 1 was repeated, except that 2 g of heavy water replaced 150 g of methanol solvent, 0.3 g of Dicamba replaced 30 g Dicamba and 0.16 g of AEP replaced 15.8 g of AEP.
(§1) In a 250 ml round bottom flask 15.5 g (0.482 millimole) of a commercial herbicide, imazaquin* (97.4% pure, having an average molecular weight of 311.4) was suspended in 100 g water. To the suspension, 6.1 g (0.469 millimole) of 98.5% pure AEP was added. […] 2-[4,5-dihydro-4-methyl-4-(methylethyl)-5-oxo-1H-imidazol-2-yl]-3-quinoline e carboxylic acid.
To a solution containing 13 g (0.1 mole) AEP (98.5% pure) dissolved in 30 g water in a 100 ml round bottom flask was added at 25° C. and with constant agitation, 16.9 g (0.1 mole) of water insoluble solid phosphonomethyl glycine.
To one liter of water was added 15.42 g of 2,4 D+7.11 g of mecoprop +1.83 g of 90% pure dicamba. After which 13.83 g AEP was added to the mixture. […] To the above solution was added 9 g of polyalkylene oxide modified by polydimethyl siloxane (Silvelt 7607 wetting agent) from Union Carbide. The mixture was stirred and the total weight was adjusted to 3000 g by adding water.

For data set [1] the following is noted: aqueous solution after filtration, not adjusted. The protocol: as §1
How the values of data set [2] were obtained:
A solution containing 25 g of the AEP salt of commercial imazaquin in water was prepared from a suspension of 25 g of imazaquin in 50 g water to which was added a stoichiometric amount of AEP (10.2 g) and an additional 15 g of water. The solution was stirred for 30 minutes after which it was filtered and the pH of the filtrate was adjusted to 7.2.

In data set [3] the test system is broad leaf plants and perennial weeds. As to the kind of experiment: evaluation as aquatic herbicide and broad spectrum growth inhibitor, compared with the isopropyl amine salt of phosphonomethyl glycine. It is filed as in vivo. The protocol: A suspension of 169 g of phosphonomethyl glycine in 301 g water was prepared and 130 g 98.5% pure AEP was added slowly with stirring until all of the phosphonomethyl glycine dissolved as the AEP salt. The resulting solution, (containing 28% of the active ingredient expressed as the free acid or 49.5% of the active ingredient expressed as the AEP salt) was evaluated as an aquatic herbicide and as a broad spectrum growth inhibitor for broad leaf plants and perennial weeds and compared with the isopropyl amine salt of phosphonomethyl glycine.

Consider `COc1c(Cl)ccc(Cl)c1C(=O)O.NCCN1CCCC1=O` [Example 1, N-pyrrolidonyl ethyl ammonium salt of 3,6-dichloro-l-methoxy benzoic acid], for which the “solubility in water (in words)” value in the data set “solubility in water” (water) is given as “easily dissolved in 60% water”; in “solubility in water” (water, listed as Example 2), “easily solubilized in water”.
As to `CC(C)C1(C)N=C(c2nc3ccccc3cc2C(=O)O)NC1=O.NCCN1CCCC1=O` (stereo not shown) [Example 3, N-pyrrolidonyl ethyl ammonium salt of imazaquin], the “dissolution of freeze-dried solid in water” value in “solubility in water” (0.1 g in 50 g of water) is on record as “dissolved completely”. Further, in data set [1], the “pH of the filtrate” value is 7.2. The “storage stability of solution” value in data set [2] (ambient conditions, stored for 6 months) was “stable under ambient conditions without any precipitation”. For the same compound, in data set [2] (cooling to 0° C., then to room temperature), the “precipitation after cooling and reheating” value was “no precipitation was observed”.
Regarding `NCCN1CCCC1=O.O=C(O)CNCP(=O)(O)O` [Example 5, N-pyrrolidonyl ethyl ammonium salt of phosphonomethyl glycerine], in “solubility in water” (isolated AEP salt), the soluble in water entry was “more than 50%”. The kill entry in data set [3] is “significantly higher and more permanent kill”.
As to `COc1c(Cl)ccc(Cl)c1C(=O)O` [reference compound], the “solubility in water (in words)” value in the data set “solubility in water” was “very poor solubility”. This compound also had a solubility in “solubility in water” (water) of less than 1000 µg/mL.

As a reminder, the solubility is the concentration that dissolves in the medium under given conditions. Read a low solubility as a poorly soluble substance.
